Data on two molecules can be found in PMC7827085 (Pharmaceutics, 2021).

Series [1] has as its target T1, ABCB1/MDR1/Pgp (Homo sapiens, UniProt P08183). Briefly: in vitro. The conditions noted are these: Estimated Transporter Inhibition IC50, ABCB1 vesicular assay, ATP-dependent NMQ uptake, HEK-293/ABCB1 inverted membrane vesicles, '-' = no inhibition.
For series [2], the target named is T2, ABCG2/BCRP (Homo sapiens, UniProt Q9UNQ0).
T2 sequence (Q9UNQ0 1-655): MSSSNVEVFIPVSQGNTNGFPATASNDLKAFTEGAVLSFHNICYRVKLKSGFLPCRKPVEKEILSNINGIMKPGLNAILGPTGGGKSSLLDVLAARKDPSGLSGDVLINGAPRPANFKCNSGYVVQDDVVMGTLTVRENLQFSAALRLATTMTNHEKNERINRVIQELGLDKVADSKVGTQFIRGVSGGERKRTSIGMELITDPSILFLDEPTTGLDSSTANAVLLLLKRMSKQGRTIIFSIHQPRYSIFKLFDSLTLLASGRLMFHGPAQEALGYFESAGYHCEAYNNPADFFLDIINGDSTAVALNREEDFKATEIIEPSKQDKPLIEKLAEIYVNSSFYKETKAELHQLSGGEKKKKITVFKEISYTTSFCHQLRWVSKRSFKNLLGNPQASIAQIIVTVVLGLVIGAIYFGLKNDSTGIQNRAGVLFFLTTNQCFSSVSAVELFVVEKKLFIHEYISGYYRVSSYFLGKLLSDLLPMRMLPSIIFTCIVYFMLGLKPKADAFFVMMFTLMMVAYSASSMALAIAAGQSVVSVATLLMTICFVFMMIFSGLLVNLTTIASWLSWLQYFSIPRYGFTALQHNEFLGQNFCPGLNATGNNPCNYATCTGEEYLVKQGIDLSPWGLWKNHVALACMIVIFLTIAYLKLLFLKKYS
Kind of series: in vitro. The conditions noted are these: human. On the procedure:
(§1) For the ABC transporter assays, we used both cell-based and membrane-based functional assays. […] The respective transport activities were assayed by measuring the cellular fluorescence of the respective transported substrates Phengreen (ABCG2) and Calcein (ABCB1 and ABCC1).
(§2) The cells were kept on ice until the flow cytometry measurements. All experiments were performed in triplicate and in at least three biological parallels. […] The PhenGreen (PG) or Calcein signal was detected in the BL1 channel (emission filter: 530/30 nm). Analysis of the data was carried out by the Attune Nxt Cytometer Software v3.1.2 (Thermo Fischer Scientific, Waltham, MA, USA). The inhibition of transporter activity was calculated by comparing the fluorescence in the presence of the test compound to that in the presence of a specific inhibitor providing maximum inhibition. […] Half-maximum inhibition (IC50) values were calculated by using the Origin2019 software (9.6.5.169, OriginLab Corporation, Northampton, MA, USA). […] In these experiments, we measured Hoechst dye extrusion in HeLa cells stably expressing eGFP and the ABCG2 variants driven by the same promoter—the transgenic cells generated by the Sleeping Beauty transposon system. […] For details, see Zámbó et al.). […] The maximum inhibition was defined for each variant as the fluorescence difference of the samples incubated with and without Ko143, respectively. […] Data analysis was performed using the Attune Nxt Cytometer Software v3.1.2. Two samples per condition and three biological replicates were examined in each experiment.
Here, we used both PhenGreen-SK diacetate and Hst dye for these measurements. The PhenGreen (PG) assay is a recently patented method applied for ensuring an efficient ABCG2 transport measurement, as the non-fluorescent PhenGreen diacetate (PG-DA) is actively extruded by ABCG2 and the cellular fluorescence is correlated with ABCG2 transport activity. Therefore, we applied this assay to characterize the test drug interactions in intact PLB-985 cells expressing high levels of the ABCG2 protein. […] ABCG2 inhibition by the test compounds was estimated by their relative (%) inhibition compared to full inhibition by Ko143.

In series [3] the target is T2, ABCG2/BCRP. Briefly: in vitro. Conditions: human. On the procedure:
These were employed at 37 °C for 10 min (ABCG2), 1 min (ABCB1), or 3 min (ABCC1), with or without 4 mM Mg-ATP, in a 50 μL final volume. The known reference inhibitors of the transporters (1 µM Ko143 for ABCG2, 1 µM Valspodar for ABCB1, and 200 µM Benzbromarone for ABCC1) served as controls. Each test compound was dissolved in DMSO and a 1 µL volume was added to the samples. After incubation, the samples were filtered and washed, and the substrates in the vesicles were dissolved in 10% SDS and transferred onto another plate. After the addition of a stabilizer, the fluorescence was measured in plate readers (Victor X3 and Enspire Perkin-Elmer, Waltham, MA, USA), while the activity of the radiolabeled substrate was measured by liquid scintillation counting (Perkin Elmer MicroBeta2 liquid scintillation counter, Perkin Elmer, Waltham, MA, USA). ABC transporter-related vesicular transport was calculated by subtracting uptake measured in the presence of Mg-AMP from the values measured in the presence of Mg-ATP.
The effects of the test compounds on ABCG2 activity were also measured in a vesicular transport assay by using inverted membrane vesicles prepared from HEK-293 cells expressing high levels of the ABCG2 transporter.
The source holds these as a separate data set.

For series [4], the target named is T3, ABCC1/MRP1 (Homo sapiens, UniProt P33527).
Series [5] has as its target T1, ABCB1/MDR1/Pgp. Kind of series: in vitro. Conditions: human. On the procedure: as §1
(§3) The cells were kept on ice until the flow cytometry measurements. All experiments were performed in triplicate and in at least three biological parallels.
as §2
ABCB1 is a high-affinity active efflux transporter of the viability dye Calcein-AM (CaAM). […] Here, we applied this widely used cellular assay (see https://www.solvobiotech.com/services/categories/dye-efflux-assays) to characterize drug interactions of the applied compounds in intact PLB-985 cells, expressing high levels of the ABCB1 protein.

Series [6] concerns the target T3, ABCC1/MRP1. Kind of series: in vitro. Conditions: HL60/ABCC1 cells. Here is the method: as §1, §3, §2
Therefore, we applied this assay to characterize the test drug interactions in intact HL60 cells expressing high levels of the ABCC1 protein.

The conditions of series [7]: in patients; lopinavir may reach, ritonavir may peak; ref FDA label 021226s018lbl / EMA Kaletra EPAR scientific discussion; cited from earlier work.

Where two headings read alike, the source gives them in different places.

T3 sequence (P33527 whole entry): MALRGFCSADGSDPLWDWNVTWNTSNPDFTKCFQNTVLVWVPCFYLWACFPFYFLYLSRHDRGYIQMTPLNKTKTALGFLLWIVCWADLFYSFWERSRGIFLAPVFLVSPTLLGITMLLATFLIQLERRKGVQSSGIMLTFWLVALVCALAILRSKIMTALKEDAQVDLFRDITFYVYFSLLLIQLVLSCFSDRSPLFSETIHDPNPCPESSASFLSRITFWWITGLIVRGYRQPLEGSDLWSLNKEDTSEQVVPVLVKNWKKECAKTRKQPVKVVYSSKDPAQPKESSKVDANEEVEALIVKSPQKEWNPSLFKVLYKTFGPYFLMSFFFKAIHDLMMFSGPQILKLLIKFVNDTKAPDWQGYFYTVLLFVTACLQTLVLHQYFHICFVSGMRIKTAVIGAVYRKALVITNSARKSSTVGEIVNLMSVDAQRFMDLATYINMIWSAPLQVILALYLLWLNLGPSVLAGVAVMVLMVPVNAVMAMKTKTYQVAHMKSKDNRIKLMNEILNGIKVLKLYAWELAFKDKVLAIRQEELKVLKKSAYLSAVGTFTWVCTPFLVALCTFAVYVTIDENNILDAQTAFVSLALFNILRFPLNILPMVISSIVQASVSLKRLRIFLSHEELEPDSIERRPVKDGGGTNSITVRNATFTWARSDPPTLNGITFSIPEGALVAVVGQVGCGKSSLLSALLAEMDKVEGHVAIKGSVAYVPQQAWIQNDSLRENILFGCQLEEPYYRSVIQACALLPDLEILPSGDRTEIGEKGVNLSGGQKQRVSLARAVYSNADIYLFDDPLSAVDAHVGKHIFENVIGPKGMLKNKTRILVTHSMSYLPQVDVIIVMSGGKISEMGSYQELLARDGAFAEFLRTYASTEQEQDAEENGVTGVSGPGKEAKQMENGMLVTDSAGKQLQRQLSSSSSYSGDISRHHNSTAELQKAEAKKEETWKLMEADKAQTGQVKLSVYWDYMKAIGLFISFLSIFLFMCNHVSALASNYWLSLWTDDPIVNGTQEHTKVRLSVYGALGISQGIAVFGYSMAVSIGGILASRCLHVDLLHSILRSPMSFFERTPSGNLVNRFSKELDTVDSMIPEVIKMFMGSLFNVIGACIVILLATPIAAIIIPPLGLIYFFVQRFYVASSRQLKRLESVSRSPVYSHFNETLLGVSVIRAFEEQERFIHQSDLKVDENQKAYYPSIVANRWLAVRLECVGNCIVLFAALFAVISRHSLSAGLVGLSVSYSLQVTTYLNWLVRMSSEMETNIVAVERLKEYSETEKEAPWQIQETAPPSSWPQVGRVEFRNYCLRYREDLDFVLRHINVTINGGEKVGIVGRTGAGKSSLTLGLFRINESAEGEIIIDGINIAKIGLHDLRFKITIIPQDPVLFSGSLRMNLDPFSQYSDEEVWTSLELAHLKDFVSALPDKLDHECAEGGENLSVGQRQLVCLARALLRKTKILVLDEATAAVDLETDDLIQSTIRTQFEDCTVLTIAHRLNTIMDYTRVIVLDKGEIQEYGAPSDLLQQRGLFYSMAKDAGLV
T1 sequence (P08183 whole entry): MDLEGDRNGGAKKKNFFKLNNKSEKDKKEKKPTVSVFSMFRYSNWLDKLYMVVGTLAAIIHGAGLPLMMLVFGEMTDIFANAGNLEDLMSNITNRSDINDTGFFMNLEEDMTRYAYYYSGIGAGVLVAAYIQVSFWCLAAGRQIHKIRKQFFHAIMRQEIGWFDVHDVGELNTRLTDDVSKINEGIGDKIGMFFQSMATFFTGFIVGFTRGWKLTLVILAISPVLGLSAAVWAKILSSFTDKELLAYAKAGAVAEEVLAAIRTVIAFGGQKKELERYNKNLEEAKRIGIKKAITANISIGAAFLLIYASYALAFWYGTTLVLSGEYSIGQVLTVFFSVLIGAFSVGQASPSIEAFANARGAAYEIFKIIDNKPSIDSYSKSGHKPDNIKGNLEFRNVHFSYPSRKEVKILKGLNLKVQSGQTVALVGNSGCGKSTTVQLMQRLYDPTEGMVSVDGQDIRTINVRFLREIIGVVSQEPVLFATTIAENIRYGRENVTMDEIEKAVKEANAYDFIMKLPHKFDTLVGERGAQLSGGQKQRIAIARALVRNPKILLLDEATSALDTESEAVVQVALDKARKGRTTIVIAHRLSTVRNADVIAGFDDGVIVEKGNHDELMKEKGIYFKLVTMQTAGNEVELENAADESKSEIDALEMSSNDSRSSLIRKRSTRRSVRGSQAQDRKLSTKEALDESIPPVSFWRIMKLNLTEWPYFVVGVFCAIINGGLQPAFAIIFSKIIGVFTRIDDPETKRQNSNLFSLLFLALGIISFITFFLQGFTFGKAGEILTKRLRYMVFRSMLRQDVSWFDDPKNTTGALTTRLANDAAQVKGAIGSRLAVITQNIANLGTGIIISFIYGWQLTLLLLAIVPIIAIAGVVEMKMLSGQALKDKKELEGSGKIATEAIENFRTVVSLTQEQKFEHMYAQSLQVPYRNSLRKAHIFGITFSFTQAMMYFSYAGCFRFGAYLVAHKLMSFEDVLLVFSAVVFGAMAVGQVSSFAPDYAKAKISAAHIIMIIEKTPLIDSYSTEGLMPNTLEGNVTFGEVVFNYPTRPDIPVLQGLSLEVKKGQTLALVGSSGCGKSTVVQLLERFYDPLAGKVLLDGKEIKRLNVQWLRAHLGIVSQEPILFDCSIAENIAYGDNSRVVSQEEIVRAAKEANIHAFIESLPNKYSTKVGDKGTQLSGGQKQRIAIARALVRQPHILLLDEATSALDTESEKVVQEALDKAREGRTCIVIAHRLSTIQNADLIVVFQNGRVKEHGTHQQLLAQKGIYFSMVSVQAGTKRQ

As for `CCN(CC)CCCC(C)Nc1ccnc2cc(Cl)ccc12` (centres unmarked) [chloroquine], on ABCB1/MDR1/Pgp [1], the half-inhibitory concentration (IC50) is greater than 50 µM. For the same molecule, the half-maximal inhibitory concentration (IC50) at 40 min on ABCG2/BCRP [2] and against ABCB1/MDR1/Pgp [5] was greater than 50 µM each time. This molecule also registered a concentration for half-maximal inhibition (IC50) at 10 min on ABCG2/BCRP [3] greater than 50 µM. The “Effect on ABCC1 vesicular ETGB transport (in words)” value on ABCC1/MRP1 [4] is “practically no effect”. Besides, the “Effect on ABCC1-dependent CaAM extrusion (in words)” value at ABCC1/MRP1 [6] was “practically no effect”.

With `CC(C)c1nc(CN(C)C(=O)N[C@H](C(=O)N[C@@H](Cc2ccccc2)C[C@H](O)[C@H](Cc2ccccc2)NC(=O)OCc2cncs2)C(C)C)cs1` [ritonavir], the “Effect on ABCC1 vesicular ETGB transport (in words)” value at ABCC1/MRP1 [4] (Sf9/ABCC1 membrane vesicles) is listed as “practically no effect”. Also, the “Plasma concentration in patients” value in series [7] is listed as “about 1 μM”.
